Results on three compounds are retold here after ChEMBL document CHEMBL2040846, “A new 9,11-secosterol from the soft coral Sinularia granosa” (Bioorg Med Chem Lett, 2012).

In brackets after ≈: the same amount, converted by molar mass.

Broadly, the inhibition is how much of the control response was suppressed.

Series [1] relates to HEp-2. As to the kind of experiment: Antiproliferative activity against human Hep2 cells after 6 days by MTT assay. Particulars: HEp-2, 144 h, read-out: ED50 (the source's name). It counts as functional. In general terms: Tetrazolium assays rely on reduction of a dye to a coloured formazan, in cell work by metabolically active cells.
For series [2], the system named is HeLa. As to the kind of experiment: Antiproliferative activity against human HeLa cells after 6 days by MTT assay. Particulars: 144 h, read-out: ED50 (the source's name). It counts as functional.
In series [3] the test system is Daoy. Put plainly: Antiproliferative activity against human DaOY cells after 6 days by MTT assay. It counts as functional. Particulars: 144 h, read-out: ED50 (the source's name).
In series [4] the test system is MCF7. As to the kind of experiment: Antiproliferative activity against human MCF7 cells after 6 days by MTT assay. It counts as functional. To be noted: MCF7, 144 h, read-out: ED50 (the source's name).
Series [5] relates to RAW264.7. Put plainly: Antiinflammatory activity in mouse RAW264.7 cells assessed as inhibition of LPS-induced COX2 expression at 10 uM incubated for 10 mins prior to LPS-challenge measured after 16 hrs by Western blot analysis relative to control. It counts as functional.
Series [6] relates to RAW264.7. As to the kind of experiment: Toxicity against mouse RAW264.7 cells. Format: cell-based.
Series [7] has as its system RAW264.7. Put plainly: Antiinflammatory activity in mouse RAW264.7 cells assessed as inhibition of LPS-induced iNOS expression at 10 uM incubated for 10 mins prior to LPS-challenge measured after 16 hrs by Western blot analysis relative to control. Format: functional.
In series [8] the test system is RAW264.7. Put plainly: Effect on beta-actin protein expression in LPS-induced mouse RAW264.7 cells at 10 uM incubated for 10 mins prior to LPS-challenge measured after 16 hrs by Western blot analysis relative to control. Particulars: raw264.7, 16 h. Format: ADME, cell-based. (In general: Immunoblotting shows a protein as a band on a membrane.)

For `CO[C@@]12[C@H](COC(N)=O)C3=C(C(=O)C(C)=C(N)C3=O)N1C[C@@H]1N[C@@H]12` [MITOMYCIN], the EC50 turned out to be 0.12 µg/mL (≈ 0.359 µM) in series [1], 0.13 µg/mL (≈ 0.389 µM) in series [2], 0.08 µg/mL (≈ 0.239 µM) in series [3] and 0.09 µg/mL (≈ 0.269 µM) in series [4].
Consider `C=C(CC[C@@H](C)[C@H]1CC[C@@H]([C@H]2C[C@@H]3O[C@@]34C[C@@H](O)CC[C@]4(C)C2=O)[C@]1(C)CCO)C(C)C`, for which the EC50 in series [1] came out at 6.21 µg/mL (≈ 13.9 µM); in series [2], 8.21 µg/mL (≈ 18.4 µM); in series [3], 5.53 µg/mL (≈ 12.4 µM); in series [4] it was 4.99 µg/mL (≈ 11.2 µM). The inhibition at 10 µM in series [5] was found to be 42.7%; in series [7], 66.1%. Further, the Activity result is on record as “Non-toxic” in series [6] and 102.3% in series [8].
Consider `C=C(CC[C@@H](C)[C@H]1CC[C@@H]([C@@H]2C[C@H]3O[C@]34C[C@@H](O)CC[C@]4(C)C2=O)[C@]1(C)CCO)C(C)C`, for which the EC50 in series [1] was greater than 40 µg/mL; in series [2] it was greater than 40 µg/mL; in series [3], 7.07 µg/mL (≈ 15.8 µM); in series [4] it was 9.98 µg/mL (≈ 22.3 µM). Besides, the Activity entry in series [6] is reported as “Non-toxic”; in series [8], 108.9%. The inhibition at 10 µM in series [7] was found to be 19.4%.
